The values that follow come from paper PMC8445441, “Elucidating the mechanism by which synthetic helper peptides sensitize Pseudomonas aeruginosa to multiple antibiotics” (PLoS Pathogens, 2021).

One data set has as its system P. aeruginosa AUMC-Pa-1. Conditions: strain AUMC-Pa-1, unit not given. In a few lines:
(§1)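 Two-fold serial dilutions in MHB received an equal volume of bacteria (suspension about 1 × 10^6 CFU/mL). Plates were held 18 h at 37 °C, then read visually for growth. Triplicate, CLSI-based.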

Another data set concerns P. aeruginosa AUMC-Pa-2. As to conditions: strain AUMC-Pa-2, unit not given. The procedure, abridged:
as §1

Another data set has as its system P. aeruginosa ATCC27853. Put plainly: microbe, parasite or virus in culture. Also on record: MICa: MIC of the antibiotic / MICac: MIC of the antibiotic in the combination: unit not given beside the values. Conditions: strain ATCC27853, unit not given. In a few lines:
as §1

The next data set relates to P. aeruginosa PA14. The data set can be described thus: microbe, parasite or virus in culture. Further details: MICa: MIC of the antibiotic / MICac: MIC of the antibiotic in the combination: unit not given beside the values. As to conditions: strain PA14, unit not given. In a few lines:
as §1

The subject of a further data set is P. aeruginosa NR-31041. Put plainly: microbe, parasite or virus in culture. Further details: MICa: MIC of the antibiotic / MICac: MIC of the antibiotic in the combination: unit not given beside the values. As to conditions: strain NR-31041, unit not given. The procedure, abridged:
as §1

A further data set has as its system P. aeruginosa NR-31040. Put plainly: microbe, parasite or virus in culture. Also on record: MICa: MIC of the antibiotic / MICac: MIC of the antibiotic in the combination: unit not given beside the values. As to conditions: strain NR-31040, unit not given. In a few lines:
as §1

For another data set, the system named is P. aeruginosa PAK. The data set can be described thus: microbe, parasite or virus in culture. As to conditions: strain PAK, unit not given. Further details: MICa: MIC of the antibiotic / MICac: MIC of the antibiotic in the combination: unit not given beside the values. The procedure, abridged: as §1
The next data set has as its system P. aeruginosa PAO1. The data set can be described thus: microbe, parasite or virus in culture. As to conditions: for MICac: the MIC for the antibiotic in the combination: S3 Table, PAO1. The procedure, abridged:
as §1

For another data set, the system named is P. aeruginosa AUMC-Pa-6. Put plainly: microbe, parasite or virus in culture. Conditions: strain AUMC-Pa-6, unit not given. The procedure, abridged:
as §1

The test system of the next data set is P. aeruginosa AUMC-Pa-4. Put plainly: microbe, parasite or virus in culture. Conditions: strain AUMC-Pa-4, unit not given. In a few lines: as §1
A further data set deals with P. aeruginosa AUMC-Pa-5. The data set can be described thus: microbe, parasite or virus in culture. As to conditions: strain AUMC-Pa-5, unit not given. In a few lines: as §1
The subject of the next data set is P. aeruginosa AUMC-Pa-3. Put plainly: microbe, parasite or virus in culture. Conditions: strain AUMC-Pa-3, unit not given. The procedure, abridged: as §1
For another data set, the system named is P. aeruginosa HM-214. Also on record: MICa: MIC of the antibiotic / MICac: MIC of the antibiotic in the combination: unit not given beside the values. As to conditions: strain HM-214, unit not given. In a few lines:
as §1

The test system of data set [1] is clinical P. aeruginosa isolates. The data set can be described thus: microbe, parasite or virus in culture. Conditions: clinical isolates, 18 h. In a few lines: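 Broth microdilution per CLSI in MHB, two-fold drug dilutions mixed with an equal volume of bacteria at about 1 × 10^6 CFU/mL. After 18 h at 37 °C, MIC taken as the lowest concentration with no visible growth; run in triplicate.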

A further data set deals with PAO1 in human blood. Put plainly: Antimicrobial activity in blood (ex vivo bacteremia model). The class given is cell-based, Pseudomonas aeruginosa. As to conditions: human blood, 5×10^7 CFU/mL PAO1; antibiotic combined with D-11 (4 μM); 4 hours. The method, then:
Human blood of healthy individuals was obtained from Sanquin (certified Dutch organization responsible for meeting the need in healthcare for blood and blood products, https://www.sanquin.nl/) and was infected with 5×10^7 CFU/mL of PAO1. The blood was distributed at 0.5 mL in 2 mL Eppendorf tubes and treated with the antibiotics and peptides at the indicated concentrations at 37 °C for 4 hours. The samples were decimal serially diluted in PBS. Drops of 10 μL of each dilution on LB agar to track the development of infection. The experiment was performed in triplicate.

The conditions of data set [2]: cited from earlier work.
The next data set concerns HEK-293 cells. Conditions: high concentration of D-11; cited from earlier work. The text has this: Interes ... || Response: This comment is valuable. […] We believe that it is a safe drug candidate.
The conditions of data set [3]: mice.
Text: Since D-11 contains five positively charged amino acids, it is easier to bind to bacterial negatively charged membrane components.
However, we still carried out high-dose toxicity tests in mice according to the recommendations.

Entries after “also recorded” stand apart in the source; their conditions may differ. Positions of bridges follow the written chain, without caps; N, C: chain ends. Non-standard residues stand in square brackets, D forms with d. Residues, ends and D or L forms follow the SMILES beside them. *: point of attachment. X1 = CC[C@H](C)CCCCC(=O)*; Dab = NCC[C@H](N)C(=O)O

Regarding `CC[C@H](C)CCCCC(=O)N[C@@H](CCN)C(=O)N[C@H](C(=O)N[C@@H](CCN)C(=O)N[C@H]1CCNC(=O)[C@H]([C@@H](C)O)NC(=O)[C@H](CCN)NC(=O)[C@H](CCN)NC(=O)[C@H](CC(C)C)NC(=O)[C@@H](Cc2ccccc2)NC(=O)[C@H](CCN)NC1=O)[C@@H](C)O` [Polymyxin B] (X1-[Dab]T[Dab][Dab][Dab][dF]L[Dab][Dab]T; lactam 4-C (inferred); N-terminus assumed), the “MICa: MIC of the antibiotic” value in the data set on P. aeruginosa AUMC-Pa-1 (antibiotic alone) came to 0.25; in the data set on P. aeruginosa AUMC-Pa-2 (antibiotic alone), 0.25; in the data set with P. aeruginosa ATCC27853 (antibiotic alone) it was 0.125; in the data set with P. aeruginosa PA14 (antibiotic alone), 0.125; in the data set on P. aeruginosa NR-31041 (antibiotic alone) it was 0.125; in the data set on P. aeruginosa NR-31040 (antibiotic alone) it was 0.25. The “MICa: MIC of the antibiotic” value in the data set on P. aeruginosa PAK (antibiotic alone) is recorded as 0.125; in the data set with P. aeruginosa AUMC-Pa-6 (antibiotic alone), 1; in the data set on P. aeruginosa AUMC-Pa-4 (antibiotic alone) it was 1; in the data set with P. aeruginosa AUMC-Pa-5 (antibiotic alone), 1; in the data set on P. aeruginosa AUMC-Pa-3 (antibiotic alone), 0.125; in the data set on P. aeruginosa HM-214 (antibiotic alone) it was 0.25. In addition, the “MICac: MIC of the antibiotic in the combination” value with P. aeruginosa AUMC-Pa-1 (with D-11 at MICbc 4) came out at 0.016; in the data set on P. aeruginosa AUMC-Pa-2 (with D-11 at MICbc 4), 0.016; in the data set with P. aeruginosa ATCC27853 (with D-11 at MICbc 4), 0.008; with P. aeruginosa PA14 (with D-11 at MICbc 4) it was 0.008; with P. aeruginosa NR-31041 (with D-11 at MICbc 4), 0.008; in the data set on P. aeruginosa NR-31040 (with D-11 at MICbc 4), 0.031. Further, the “MICac: MIC of the antibiotic in the combination” value is 0.008 with P. aeruginosa PAK (with D-11 at MICbc 4); 0.25 in the data set on P. aeruginosa AUMC-Pa-6 (with D-11 at MICbc 4); 0.5 in the data set with P. aeruginosa AUMC-Pa-4 (with D-11 at MICbc 4); 0.125 in the data set on P. aeruginosa AUMC-Pa-5 (with D-11 at MICbc 4); 0.002 with P. aeruginosa AUMC-Pa-3 (with D-11 at MICbc 4); 0.031 in the data set with P. aeruginosa HM-214 (with D-11 at MICbc 4). The “MIC of polymyxin B” value in the data set with P. aeruginosa PAO1 (1×MIC used as positive control) is 0.5 mg/L. Also, in the data set on P. aeruginosa PAO1 (PAO1, 18 h), the “MICa: the MIC of antibiotics” value turned out to be 0.25 µM. Further, the “MICac: the MIC for the antibiotic in the combination” value in the data set with P. aeruginosa PAO1 (with 2 μM D-11) is 4 nM; in the data set with P. aeruginosa PAO1 (with 4 μM D-11) it was 1 nM. Further, in [1], the “Antibiotic sensibility (MIC) of clinical P. aeruginosa isolate AUMC-Pa-1” value amounted to 0.25 µM. Further, in [1], the “Antibiotic sensibility (MIC) of clinical P. aeruginosa isolate AUMC-Pa-2” value stood at 0.25 µM. In [1], the “Antibiotic sensibility (MIC) of clinical P. aeruginosa isolate AUMC-Pa-3” value was 0.125 µM. Besides, the “Antibiotic sensibility (MIC) of clinical P. aeruginosa isolate AUMC-Pa-4” value in data set [1] worked out at 1 µM. The “Antibiotic sensibility (MIC) of clinical P. aeruginosa isolate AUMC-Pa-5” value in data set [1] turned out to be 1 µM. Moreover, in data set [1], the “Antibiotic sensibility (MIC) of clinical P. aeruginosa isolate AUMC-Pa-6” value came out at 1 µM. Also, the “Antibiotic sensibility (MIC) of clinical P. aeruginosa isolate HM-214” value in [1] came out at 0.25 µM. The “Antibiotic sensibility (MIC) of clinical P. aeruginosa isolate NR-31040” value in data set [1] was 0.25 µM. Besides, the “Antibiotic sensibility (MIC) of clinical P. aeruginosa isolate NR-31041” value in [1] came to 0.125 µM. In addition, in the data set on PAO1 in human blood, the “antibacterial effect in blood (in words)” value is “relative week antibacterial effects”.
Take `CC[C@@H](C)[C@@H](NC(=O)[C@H](N)CCCNC(=N)N)C(=O)N[C@@H](C(=O)N[C@H](CCC(N)=O)C(=O)N[C@H](CCCNC(=N)N)C(=O)N[C@@H](C(=O)N[C@H](CCCCN)C(=O)N[C@H](CCCCN)C(=O)N[C@H](Cc1c[nH]c2ccccc12)C(=O)N[C@H](CC(C)C)C(=O)N[C@H](CCCNC(=N)N)C(N)=O)[C@H](C)CC)C(C)C` [Peptide D-11] (H-[dR][dI][dV][dQ][dR][dI][dK][dK][dW][dL][dR]-NH2): in the data set with P. aeruginosa PAO1 (PAO1, 18 h), the “MIC of the peptide” value stood at 32 µM, the “MICb: the MIC of D-11” value was 32 µM and the “MICb: the MIC of the peptide” value is 32 µM. Besides, in data set [2], the “stability in plasma (in words)” value is on record as “stable in plasma”. Further, the “toxicity to HEK-293 cells (in words)” value with HEK-293 cells is on record as “not toxic to HEK-293 cells; also recorded: no toxicity to HEK-293 cells”. In data set [3] (10 mg/kg D-11), the “side effects in vivo (in words)” value is listed as “no obvious side effects were observed”. Further, in data set [3] (subcutaneous 20 mg/kg D-11), the “irritation after subcutaneous injection (in words)” value is “slightly irritating”.
